One assay has as its target wild-type HIV RT (Human immunodeficiency virus type 1 group M subtype B, UniProt P04585). Kind of assay: Inhibition of HIV-RT activity (RNA template t500 annealed to DNA primer pD500, [alpha-33P]-dATP incorporation). The note with it: for inhibition at 10 µM: read-out: % I (10 μM), Inhibition of HIV-RT; for inhibition at 100 µM: read-out: % I (100 μM), Inhibition of HIV-RT. It is filed as biochemical.

A further assay deals with T1, HCV NS5B RNA polymerase (Hepatitis C virus genotype 1b, UniProt P26663).
T1 construct: purified hepatitis C NS5B (form with 21 amino acids C-terminally truncated)
The assay is described as follows: Inhibition of HCV NS5B RNA-dependent RNA polymerase on heteromeric RNA template t500 (filter-binding, radiolabelled NTP). The assay is classed as biochemical. The note with it: test concentration not given (compounds tested up to 100 μM); for % I (ATP), Percent Inhibition of HCV NS5B RNA polymerase: [alpha-32P]-ATP label; for % I (GTP), Percent Inhibition of HCV NS5B RNA polymerase: [alpha-32P]-GTP label. The protocol: This assay can be used to measure the ability of the nucleoside triphosphates of the present invention to inhibit the enzymatic activity of the RNA-dependent RNA polymerase (NS5B) of the hepatitis C virus (HCV) on a heteromeric RNA template.
The following describes assay buffer conditions: (50 μl-total/reaction) • 20 mM Tris, pH 7.5 • 50 μM EDTA • 5 mM DTT • 2 mM MgCl2 • 80 mM KCl • 0.4 U/μl RNAsin (Promega, stock is 40 units/μl) • 0.75 μg t500 (a 500 nt RNA made using T7 runoff transcription with a sequence from the NS2/3 region of the hepatitis C genome) • 1.6 μg purified hepatitis C NS5B (form with 21 amino acids C-terminally truncated) • 1 μM A, C, U, GTP (nucleoside triphosphate mix) • [alpha-^32P]-GTP or [alpha-^32P]-ATP The compounds were tested at various concentrations up to 100 μM final concentration.
An appropriate volume of reaction buffer was made including enzyme and template t500. Nucleoside derivatives of the present invention were pipetted into the wells of a 96-well plate. A mixture of nucleoside triphosphates (NTP's), including the radiolabeled GTP, was made and pipetted into the wells of a 96-well plate. The reaction was initiated by addition of the enzyme-template reaction solution and allowed to proceed at room temperature for 1-2 hours.
The reaction was quenched by addition of 20 μl 0.5 M EDTA, pH 8.0. Blank reactions in which the quench solution is added to the NTPs prior to the addition of the reaction buffer were included.
50 μL of the quenched reaction was spotted onto DE81 filter disks (Whatman) and allowed to dry for 30 minutes. The filters were washed with 0.3 M ammonium formate, pH 8 (150 mL/wash until the cpm in 1 mL wash is less than 100, usually 6 washes). The filters were counted in 5-mL scintillation fluid in a scintillation counter.
The percentage of inhibition is calculated according to the following equation: %Inhibition={1−(cpm in test reaction−cpm in blank)/(cpm in control reaction−cpm in blank)}×100.

T1 sequence (P26663 2420-2989): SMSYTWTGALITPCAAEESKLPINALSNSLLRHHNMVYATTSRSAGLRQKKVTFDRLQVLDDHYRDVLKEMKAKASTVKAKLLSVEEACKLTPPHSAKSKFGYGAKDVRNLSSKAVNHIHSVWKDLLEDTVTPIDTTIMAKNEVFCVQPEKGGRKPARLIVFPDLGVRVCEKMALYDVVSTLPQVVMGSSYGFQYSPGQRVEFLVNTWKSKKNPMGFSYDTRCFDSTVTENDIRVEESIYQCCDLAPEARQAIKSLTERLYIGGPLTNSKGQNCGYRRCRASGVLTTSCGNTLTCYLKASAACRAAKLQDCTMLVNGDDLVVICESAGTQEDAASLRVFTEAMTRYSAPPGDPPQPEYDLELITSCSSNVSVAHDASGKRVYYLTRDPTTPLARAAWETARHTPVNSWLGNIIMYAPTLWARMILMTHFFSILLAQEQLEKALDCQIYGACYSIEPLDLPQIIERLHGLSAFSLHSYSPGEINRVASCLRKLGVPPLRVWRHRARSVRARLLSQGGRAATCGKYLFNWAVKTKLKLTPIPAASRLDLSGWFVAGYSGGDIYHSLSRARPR

A word on the inhibition: it is the relative decrease from the control value, in per cent. On to `COc1cc(CN)cc(OC)c1` [compound 10], for which, at wild-type HIV RT, the inhibition at 10 µM is -6.41% and the inhibition at 100 µM is -11.9%.
For `NCC1COCCOCCOCCOCCO1` (stereo not shown) [compound 11] the same measures were 5.37% and -17.2%.
The corresponding values for `NCc1ccc(-c2ccccc2)cc1` [compound 14] are -2.25% and -12.9%.
Consider “2′-O-Methyl guanosine-5′-(α-P-(N-butyl)triphosphate) [compound 23 of Table 2]”, for which, on HCV NS5B RNA polymerase, the “% I (ATP), Percent Inhibition of HCV NS5B RNA polymerase” value was 90% and the “% I (GTP), Percent Inhibition of HCV NS5B RNA polymerase” value is given as 91%.
The corresponding values for “2′-Deoxythymidine-5′-(α-P-(amino triphosphate) [compound 17 of Table 2]” are 0.1% and −6%.

The record behind these values is patent US6900308B2, “α-modified nucleoside triphosphates” (ISIS Pharmaceuticals, Inc., priority 2001, dated 2005).
